Key:
[1] = test system: K. pneumoniae 667(phoP、pmrA、blaKPC); experiment: Checkerboard assay (MIC, FICI); format: cell-based; details: K. pneumoniae 667 (phoP, pmrA); antibiotic + β,β-Dim
Experimental: (§1) The FICI of β,β-Dim–colistin combination was determined by a checkerboard assay. Briefly, two-fold serial dilutions of β,β-Dim and colistin were prepared in a 96-well plate. After incubation at 37 °C for 18 h with bacterial suspension (10^6 CFU/mL), OD600 values were measured. FICI = (MICβ,β-Dim in combination/MICβ,β-Dim) + (MICcolistin in combination/MICcolistin). The synergistic effect of β,β-Dim with other antibiotics was measured in the same way. Synergy was considered to be an FICI ≤ 0.5.

E. coli 13f4(mcr-1) = experiment: Checkerboard assay (MIC, FICI); format: cell-based; details: E. coli 13f4 (mcr-1); antibiotic + β,β-Dim
Experimental: as §1

[2] = set-up: method as in PMID 31882661; details: cited from earlier work

SMILES: CNC(C)C1CCC(N)C(OC2C(N)CC(N)C(OC3OCC(C)(O)C(NC)C3O)C2O)O1 (stereo not drawn) [gentamicin]
- FICI of β,β-Dim combined with the antibiotic [1]: > 1
- FICI of β,β-Dim combined with the antibiotic (E. coli 13f4(mcr-1)): > 1

SMILES: O=C(O)c1cn(C2CC2)c2cc(N3CCNCC3)c(F)cc2c1=O [ciprofloxacin]
- FICI of β,β-Dim combined with the antibiotic [1]: > 1
- FICI of β,β-Dim combined with the antibiotic (E. coli 13f4(mcr-1)): > 1

SMILES: CS(=O)(=O)c1ccc([C@@H](O)[C@@H](CF)NC(=O)C(Cl)Cl)cc1 [florfenicol]
- FICI of β,β-Dim combined with the antibiotic [1]: > 1
- FICI of β,β-Dim combined with the antibiotic (E. coli 13f4(mcr-1)): > 1

SMILES: N#CC(C#N)=NNc1cccc(Cl)c1 [CCCP, carbonyl cyanide 3-chloro phenyl hydrazone]
- reduction of colistin MIC by combination with CCCP [2]: approximately 8 fold

SMILES: CC[C@H]1OC(=O)C[C@@H](O)[C@H](C)[C@@H](O[C@@H]2O[C@H](C)[C@@H](O[C@H]3C[C@@](C)(O)[C@@H](O)[C@H](C)O3)[C@H](N(C)C)[C@H]2O)[C@@H](CC=O)C[C@@H](C)C(=O)/C=C/C(C)=C/[C@@H]1CO[C@@H]1O[C@H](C)[C@@H](O)[C@@H](OC)[C@H]1OC [tylosin]
- FICI of β,β-Dim combined with the antibiotic [1]: > 1
- FICI of β,β-Dim combined with the antibiotic (E. coli 13f4(mcr-1)): > 1

SMILES: CO[C@H]1/C=C/O[C@@]2(C)Oc3c(C)c(O)c4c(O)c(c(/C=N/N5CCN(C)CC5)c(O)c4c3C2=O)NC(=O)/C(C)=C\C=C\[C@H](C)[C@H](O)[C@@H](C)[C@@H](O)[C@@H](C)[C@H](OC(C)=O)[C@@H]1C [rifampicin]
- FICI of β,β-Dim combined with the antibiotic [1]: > 1
- FICI of β,β-Dim combined with the antibiotic (E. coli 13f4(mcr-1)): > 1

SMILES: C[C@H]1c2cccc(O)c2C(=O)C2=C(O)[C@]3(O)C(=O)C(C(N)=O)=C(O)[C@@H](N(C)C)[C@@H]3[C@@H](O)[C@@H]21 [doxycycline]
- FICI of β,β-Dim combined with the antibiotic [1]: > 1
- FICI of β,β-Dim combined with the antibiotic (E. coli 13f4(mcr-1)): > 1

SMILES: CC1(C)S[C@@H]2[C@H](NC(=O)[C@H](N)c3ccccc3)C(=O)N2[C@H]1C(=O)O [ampicillin]
- FICI of β,β-Dim combined with the antibiotic [1]: > 1
- FICI of β,β-Dim combined with the antibiotic (E. coli 13f4(mcr-1)): > 1

Reference: article PMC12837263, “β,β-Dimethylacrylalkannin Restores Colistin Efficacy Against mcr- and TCS-Mediated Resistant Gram-Negative Bacteria via Membrane Disturbance” (Antibiotics, 2025)
